Measured values as given in patent publication US20110217715A1, “GENE EXPRESSION IN DUCHENNE MUSCULAR DYSTROPHY” (CHILDREN'S HOSPITAL MEDICAL CENTER, priority 2008, published 2011).

Tested on: mRNA expression in peripheral blood of individuals with DMD
Experiment: Whole-blood gene expression microarray: DMD administered deflazacort vs DMD administered prednisone
Format: in vivo, human
Description: Fifteen ml of blood was collected from each individual into 6 PAXgene® Vacutainer® tubes (PreAnalytiX, Germany) by antecubital fossa venipuncture. PAXgene® tubes contain a proprietary reagent that immediately stabilizes RNA, thus reducing RNA degradation and minimizing gene expression changes following phlebotomy. The tubes were then inverted 20 times, then remained undisturbed for 2 h at room temperature (about 19° C. to about 22° C.), and then stored at -70° C. until processed. Total RNA was isolated using the Paxgene® blood RNA kit (PreAnalytiX, Germany) according to the manufacturers instructions. The RNA isolated is from all cells in whole blood. Typical yields of total RNA isolated from about 7.5 ml of human whole blood were between 10 μg RNA and 40 μg RNA. RNA quality and purity was analyzed by spectrophotometry using the Nanodrop ND-1000, and RNA integrity was analyzed using the Agilent 2100 Bioanalyzer. […] Sample labeling, hybridization to chips, and image scanning were performed using standard Affymetrix protocols. For each whole blood sample from control individuals and individuals with DMD, total RNA was labeled using the One-Cycle Target Labeling protocol and hybridized to the arrays. […] Double-stranded cDNA synthesis, biotin-labeled cRNA synthesis, and cRNA fragmentation were performed according to the Affymetrix GeneChip Eukaryotic Expression Analysis protocol. The labeled, fragmented cRNA (15 μg) was hybridized at 45° C. overnight. After hybridization, the array was washed and stained. The arrays were scanned with an argon-ion laser at λ=570 nm, with a resolution of 3 μm/pixel (Affymetrix, Inc.). After scanning the array, the raw probe level values for each probe were saved in Affymetrix.cel files. […] Statistical analyses, including t-test analyses, unsupervised hierarchical clustering, and principal component analyses were conducted using Genespring 7.2 software ([…]® 7, Silicon Genetics, Redwood City Calif.). […] Corrections for multiple comparisons used a Benjamini-Hochberg False Discovery Rate (FDR) of 0.05, disclosed in Tang et al., J Cereb Blood Flow Metab 26 (2006) 1089, which is expressly incorporated by reference herein in its entirety. […] Sample processing and array hybridization, probe-level data analysis, and statistical analysis were identical to Example 1.

CC(=O)OCC(=O)[C@@]12N=C(C)O[C@@H]1C[C@H]1[C@@H]3CCC4=CC(=O)C=C[C@]4(C)[C@H]3[C@@H](O)C[C@@]12C [deflazacort]
p-value (gene PECAM1, Genbank AA702701, Nucleic Acid No. 2155): 0.00909 | p-value (gene PECAM1, Genbank M37780, Nucleic Acid No. 2154): 0.00421 | p-value (gene PF4V1, Genbank NM_002620, Nucleic Acid No. 2156): 0.0164 | p-value (gene PFKFB3, Genbank NM_004566, Nucleic Acid No. 2157): 0.0338 | p-value (gene PHACTR2, Genbank AA551142, Nucleic Acid No. 2158): 0.039 | p-value (gene PHACTR2, Genbank NM_014721, Nucleic Acid No. 2159): 0.0451 | p-value (gene PHCA, Genbank R12678, Nucleic Acid No. 2160): 0.0221 | p-value (gene PHF21A, Genbank BC015714, Nucleic Acid No. 2161): 0.0231 | p-value (gene PHGDHL1, Genbank AF339764, Nucleic Acid No. 2162): 0.0444 | p-value (gene PIAS1, Genbank AI732802, Nucleic Acid No. 2163): 0.0349 | p-value (gene PICALM, Genbank AL135735, Nucleic Acid No. 2164): 0.0165 | p-value (gene PICALM, Genbank AV722190, Nucleic Acid No. 762): 0.0363 | p-value (gene PLEK, Genbank NM_002664, Nucleic Acid No. 2165): 0.000252 | p-value (gene PLEKHA2, Genbank BF347859, Nucleic Acid No. 886): 0.0183 | p-value (gene PLEKHM1, Genbank AB002354, Nucleic Acid No. 2166): 0.0134 | p-value (gene PLSCR1, Genbank AI825926, Nucleic Acid No. 2167): 0.0487 | p-value (gene PLXNB2, Genbank BC004542, Nucleic Acid No. 2168): 0.0177 | p-value (gene PPGB, Genbank NM_000308, Nucleic Acid No. 2170): 0.0193 | p-value (gene PPIG, Genbank AW970944, Nucleic Acid No. 2171): 0.011 | p-value (gene PPM1F, Genbank BC013798, Nucleic Acid No. 2172): 0.0208 | p-value (gene PPP3CA, Genbank AA532718, Nucleic Acid No. 2173): 0.0165 | p-value (gene PRKACA, Genbank NM_002730, Nucleic Acid No. 2174): 0.00184 | p-value (gene PRKAR1A, Genbank AI682905, Nucleic Acid No. 2175): 0.0262 | p-value (gene PRKAR2B, Genbank NM_002736, Nucleic Acid No. 1688): 0.0441 | p-value (gene PRKCD, Genbank NM_006254, Nucleic Acid No. 2176): 0.0077 | p-value (gene PROK2, Genbank AF182069, Nucleic Acid No. 2177): 0.0338 | p-value (gene PSENEN, Genbank NM_018468, Nucleic Acid No. 2178): 0.0201 | p-value (gene PTGS1, Genbank NM_000962, Nucleic Acid No. 329 (first entry)): 0.0419 | p-value (gene PTGS1, Genbank NM_000962, Nucleic Acid No. 329 (second entry)): 0.0226 | p-value (gene PTGS1, Genbank S36219, Nucleic Acid No. 1667): 0.0474 | p-value (gene PTGS2, Genbank AY151286, Nucleic Acid No. 2179): 0.0187 | p-value (gene PTPN12, Genbank AL079909, Nucleic Acid No. 2180): 0.00163 | p-value (gene PTPRE, Genbank AA775177, Nucleic Acid No. 2181): 0.0161 | p-value (gene RAB8A, Genbank BC002977, Nucleic Acid No. 2185): 0.00561 | p-value (gene RAB11FIP1, Genbank NM_025151, Nucleic Acid No. 2182): 0.0397 | p-value (gene RAB11FIP4, Genbank BG248313, Nucleic Acid No. 465): 0.047 | p-value (gene RAB18, Genbank AU145607, Nucleic Acid No. 2183): 0.0414 | p-value (gene RAB31, Genbank NM_006868, Nucleic Acid No. 2184): 0.0378 | p-value (gene RAC1, Genbank AJ012502, Nucleic Acid No. 551): 0.0328 | p-value (gene RAI17, Genbank AF070622, Nucleic Acid No. 1313): 0.0318 | p-value (gene RAP1A, Genbank AW793677, Nucleic Acid No. 2186): 0.0194 | p-value (gene RAP80, Genbank AF113675, Nucleic Acid No. 2187): 0.00717 | p-value (gene RARA, Genbank AJ417079, Nucleic Acid No. 2188): 0.00262 | p-value (gene RASA1, Genbank AK021812, Nucleic Acid No. 2189): 0.0372 | p-value (gene RBBP5, Genbank NM_005057, Nucleic Acid No. 2190): 0.0383 | p-value (gene REL, Genbank NM_002908, Nucleic Acid No. 2191): 0.0166 | p-value (gene RERE, Genbank H71242, Nucleic Acid No. 2192): 0.0354 | p-value (gene RFWD2, Genbank BF725688, Nucleic Acid No. 2193): 0.0334 | p-value (gene RFX2, Genbank AK024288, Nucleic Acid No. 2194): 0.0472 | p-value (gene RG9MTD3, Genbank AI214944, Nucleic Acid No. 2195): 0.0449 | p-value (gene RHOQ, Genbank BC033251, Nucleic Acid No. 2196): 0.0402 | p-value (gene RIN3, Genbank AA625133, Nucleic Acid No. 2197): 0.0322 | p-value (gene RIT1, Genbank AL037450, Nucleic Acid No. 1675): 0.0214 | p-value (gene RNF24, Genbank BC000213, Nucleic Acid No. 2198): 0.0415 | p-value (gene ROCK1, Genbank AL050032, Nucleic Acid No. 2199): 0.0356 | p-value (gene RSU1, Genbank AW515913, Nucleic Acid No. 2200): 0.0152 | p-value (gene RUFY1, Genbank NM_025158, Nucleic Acid No. 2201): 0.0258 | p-value (gene RUFY2, Genbank NM_017987, Nucleic Acid No. 2202): 0.00853 | p-value (gene SEC14L1, Genbank NM_003003, Nucleic Acid No. 2203): 0.0303 | p-value (gene SEC23B, Genbank BC005032, Nucleic Acid No. 2204): 0.0301 | p-value (gene SECTM1, Genbank BF939675, Nucleic Acid No. 2205): 0.0499 | p-value (gene SERPINA1, Genbank AF119873, Nucleic Acid No. 2207): 0.0459 | p-value (gene SERPINA1, Genbank NM_000295, Nucleic Acid No. 2206): 0.022 | p-value (gene SF3A2, Genbank L21990, Nucleic Acid No. 2208): 0.0469 | p-value (gene SGK, Genbank NM_005627, Nucleic Acid No. 2209): 0.028 | p-value (gene SH3BGRL2, Genbank AL035700, Nucleic Acid No. 1736): 0.0258 | p-value (gene pp9099, Genbank NM_025201, Nucleic Acid No. 2169): 0.0311 | number of genes significantly up-regulated (of the 508 genes, deflazacort compared to prednisone): 30 genes
